Like-named read-outs stand apart in the source and are kept apart here.
Experiments:
P. falciparum [1] = conditions: read-out: IC50 of positive control for P. falciparum; positive control range; cited from earlier work
L. donovani = test: In vitro antiparasitic assay against L. donovani amastigotes (PicoGreen); assay type: cell-based; conditions: Leishmania donovani, I = inactive at 10 µg/mL
Experimental: Promastigotes cultures of L. donovani are maintained in continuous log phase growth in Liver Infusion Tryptose (LIT) Medium, pH 7.2, supplemented with 10 % Fetal Bovine Serum (FBS) at 28 °C. For promastigote transformation into amastigote forms, 1 mL of promastigotes log phase culture is transferred into 5 mL of Medium 199 Modified (SIGMA-Cat M3769) pH 5.5, supplemented with 0.1 g/L L-glutamine, 2.2 g/L sodium bicarbonate, 2 g Glucose, 5 mL penicillin–streptomycin and 20 % FBS and maintained at 35 °C until its use for bioassays.
(§1) Dry samples were diluted in 100 % DMSO (dimethylsulfoxide) to obtain a concentration of 4 mg/mL. Samples are used immediately in the bioassay and stored at −20 °C in the dark until results are obtained. All assays are performed in sterile 96-well microtitre culture plates (Costar Cat 3595). In a primary screening samples are tested in duplicate wells at a final concentration of 10 μg/mL. […] The IC50 is analyzed with the Excel Add-On software LSW Data Analysis Tool. The concentration that inhibited the growth of the parasites to 50 % (IC50) was calculated through the inhibition curve of the obtained optical density values, and compared to the untreated controls.
(§2) L. donovani and P. falciparum A […] is used to determine the amount of parasites in culture. After 48 and 72 h incubation, respectively, 1 % PicoGreen® solution is added to all wells in the dark. After shaking, the plate is taken into a microplate reader employing 485/20 nm excitation and 528/20 nm emission filter sets.

P. falciparum [2] = test: In vitro antiplasmodial assay, chloroquine-resistant strain Indochina W2 (PicoGreen); assay type: cell-based; conditions: Plasmodium falciparum, I = inactive at 10 µg/mL, read-out: Antiparasitic activity IC50, P. falciparum
Experimental: The cultures are kept in synchrony by thermal cycling incubation and are maintained in continuous log phase growth in RPM-I1640 medium (SIGMA) supplemented with 2 % washed human O Rh positive (+) erythrocytes, 25 mM HEPES, […] NaHCO3, and 10 % Human Serum from an O Rh+ donor. All cultures and assays are conducted at 37 °C under an atmosphere of 5 % CO2 and 5 % O2, with a balance of N2 (90 %).
as §1, §2

T. cruzi [3] = test: In vitro T. cruzi growth inhibition, Tulahuen clone C4 expressing β-galactosidase, in Vero cells; assay type: cell-based; conditions: Trypanosoma cruzi, strain Tulahuen, I = inactive at 10 µg/mL, read-out: Antiparasitic activity IC50, T. cruzi
Experimental: T. cruzi (Tulahuen) C4 strain lactosidase (Lac Z) gene. The strain is maintained on VERO Cells (African Green Monkey cell line obtained from ATCC on 2006), grown in monolayers in RPM-I1640 medium, supplemented with 10 % heat inactivated FBS. All cultures and assays are conducted at 37 °C under an atmosphere of 5 % CO2/95 % air mixture.
as §1
T. cruzi In this assay, a colorimetric method is used to determine the inhibition of parasite growth as detected by reduction of β-galactosidase (β-Gal) as a reporter gene, expressed by the Tulahuen clone C4 of T. cruzi. Assays are performed on […], the intracellular form of the parasite infecting African green monkey kidney (VERO) cells, exposed during 120 h to different concentrations (50, 10 and 2 µg/mL) of the test substance. The resulting colour from the cleavage of chlorophenol red-β-D-galactoside (CPRG) by β-Gal expressed by the parasite, was measured using a Benchmark Bio-Rad microplate reader at 570 nm.

[4] = Cytotoxicity bioassay (MTT); assay type: cell-based; conditions: African green monkey, five days, I = inactive at 10 µg/mL
Experimental: Vero cells were seeded in 96-well plates in RPM-I1640 medium supplemented with 10 % FBS and 1 % penicillin/streptomycin. The cells were allowed to grow for 24 h before adding the test compounds, dissolved in DMSO, to final concentrations of 10, 4, 0.2 and 0.08 µg/mL. A sample with only a volume of DMSO similar to the added volume in the compounds samples was placed as a negative control in all plates. All samples were incubated for five days before staining and examining for reduction of 3-(4,5-dimethylthiazol-2-yl)-2,5-diphenyltetrazolium bromide (MTT) and analyzed 4 h later in a color plate reader at 570 nm.

[5] = target: α-glucosidase from baker's yeast; test: α-Glucosidase inhibitory assay (PNP-G substrate) and kinetic analysis; assay type: biochemical, S. cerevisiae
Experimental: Lineweaver–Burk plots were constructed using different concentrations of substrate and triterpenes 1–5.
The α-glucosidase inhibitory assay was performed according to Chan and collaborators (2010), with modifications. α-glucosidase from baker’s yeast purchased from Sigma Chemical Co. The inhibition was measured spectrophotometrically at pH 7.0 and 37 °C employing 2 mM p-nitrophenyl α-D-glucopyranoside (PNP-G) as a substrate and 32 mU/mL of enzyme, in 100 mM potassium phosphate buffer (enzyme stock). […] The absorbance (A) of 4-nitrophenol released by the hydrolysis of PNP-G was measured at 400 nm by Synergy HT Bio Tek microplate spectrophotometer. […] After incubating, 150µL of substrate was added and further incubated for 20 min at 37 °C. All assays are performed in 96-well microplates (Greiner bio-one 655101) in duplicate. The activity of samples was calculated as a percentage in comparison to a control (DMSO or MeOH instead of sample solution) according with the following equation:
%Inhibition=(ΔAcontrol-ΔAsample)/ΔAcontrol×100%
The concentration required to inhibit activity of the enzyme by 50 % (IC50) was calculated by regression analysis.

T. cruzi [6] = conditions: read-out: IC50 of positive control for T. cruzi; positive control range; cited from earlier work
[7] = pH 7.0, 37 °C, 2 mM PNP-G, read-out: α-glucosidase inhibition IC50
[8] = α-glucosidase IC50 in Table 2, read-out: IC50
[9] = read-out: IC50, Vero cells (cytotoxicity)

SMILES	IC50 (P. falciparum [1]) [µM]	IC50 (L. donovani)	IC50 (P. falciparum [2])	IC50 (T. cruzi [3])	IC50 at 5 days ([4]; Vero cells)	IC50 [5, 7] [µM]	IC50 [5, 8] [µM]	IC50 (T. cruzi [6]) [µM]	IC50 at 5 days [4, 9]	type of α-glucosidase inhibition (Lineweaver–Burk plots) ([5]; different concentrations of substrate and inhibitor)	α-glucosidase inhibition IC50 ([5]; pH 7.0, 37 °C, 2 mM PNP-G)	melting point [°C]
CCN(CC)CCCC(C)Nc1ccnc2cc(Cl)ccc12 (centres unmarked) [Chloroquine]	0.08 to 0.1											
CC1(C)CC[C@]2(C(=O)O)CC[C@]3(C)C(=CC[C@@H]4[C@@]5(C)CC[C@H](O)C(C)(C)[C@@H]5CC[C@]43C)[C@@H]2C1 [Compound 4, oleanolic acid]		5.3 ± 0.2 µM	> 10 µg/mL	> 10 µg/mL	140.8 ± 0.5 µM	0.98	0.98					
CC1CS(=O)(=O)CCN1/N=C/c1ccc([N+](=O)[O-])o1 (centres unmarked) [Nifurtimox, reference compound]				1.6 ± 0.11 µM				0.15 to 13.4				
CC1(C)CC[C@]2(C)CC[C@]3(C)C(=CC[C@@H]4[C@@]5(C)CC[C@H](O)C(C)(C)[C@@H]5CC[C@]43C)[C@@H]2C1 [Compound 2, β-amyrine]		> 10 µg/mL	> 10 µg/mL	> 10 µg/mL		0.02	0.02		> 10 µg/mL			
C[C@H]1O[C@H](O[C@H]2[C@H](O)[C@@H](O)[C@@H](O[C@H]3[C@H](O)[C@@H](O)C(O)O[C@@H]3CO)O[C@@H]2CO)[C@H](O)[C@@H](O)[C@@H]1N[C@H]1C=C(CO)[C@@H](O)[C@H](O)[C@H]1O (some centres unmarked) [acarbose, reference compound]										competitive inhibitor		
C[C@@H]1[C@H](O)[C@@H](C)/C=C/C=C/C=C/C=C/C=C/C=C/C=C/[C@H](O[C@@H]2O[C@H](C)[C@@H](O)[C@H](N)[C@@H]2O)C[C@@H]2O[C@](O)(C[C@@H](O)C[C@@H](O)[C@H](O)CC[C@@H](O)C[C@@H](O)CC(=O)O[C@H]1C)C[C@H](O)[C@H]2C(=O)O [Anfotericine B, Amphotericin B, reference compound]		1 ± 0.12 µM										
C=C(C)[C@@H]1CC[C@]2(C(=O)O)CC[C@]3(C)[C@H](CC[C@@H]4[C@@]5(C)CC[C@H](O)C(C)(C)[C@@H]5CC[C@]43C)[C@@H]12 [Compound 5, betulinic acid]		> 10 µg/mL	18 ± 0.4 µM	> 10 µg/mL		2.37	2.37		131.1 ± 0.3 µM			
[O-][S@@+]1C[C@H](O)CS1 [Compound 7, iso-brugierol]		> 10 µg/mL	> 10 µg/mL	> 10 µg/mL	> 10 µg/mL						inactive	82 to 83
C[C@H]1[C@H](C)CC[C@]2(C)CC[C@]3(C)C(=CC[C@@H]4[C@@]5(C)CC[C@H](O)C(C)(C)[C@@H]5CC[C@]43C)[C@H]12 [Compound 1, α-amyrine]		> 10 µg/mL	> 10 µg/mL	19 ± 0.6 µM	> 10 µg/mL	1.45	1.45					
O=c1c(O)c(-c2ccc(O)c(O)c2)oc2cc(O)cc(O)c12 [Compound 9, quercetin]		12.6 ± 0.2 µM	9.7 ± 0.3 µM	13 ± 0.4 µM	> 10 µg/mL	29.8						
[O-][S@+]1C[C@H](O)CS1 [Compound 6, brugierol]		> 10 µg/mL	> 10 µg/mL	> 10 µg/mL	> 10 µg/mL						inactive	
C[C@H]1[C@H](C)CC[C@]2(C(=O)O)CC[C@]3(C)C(=CC[C@@H]4[C@@]5(C)CC[C@H](O)C(C)(C)[C@@H]5CC[C@]43C)[C@H]12 [Compound 3, ursolic acid]		2.4 ± 0.1 µM	21.9 ± 0.6 µM	> 10 µg/mL	64.8 ± 0.3 µM	1.08	1.08					
O=c1c(O)c(-c2ccc(O)cc2)oc2cc(O)cc(O)c12 [Compound 8, kaempferol]		22.9 ± 0.2 µM	> 10 µg/mL	> 10 µg/mL	154.9 ± 0.6 µM	262						

Reference: article PMC4586009, “Phytochemical composition, antiparasitic and α–glucosidase inhibition activities from Pelliciera rhizophorae” (Chemistry Central Journal, 2015)
